Test results from patent publication US20120213826A1, “Use of Pro-Inflammatory Compounds for Promoting Bone Formation” (Imperial Innovations Limited, priority 2009, published 2012).

Experiments:
[1] = test system: muscle-derived stromal cells (MDSC); assay: ALP quantification assay, osteogenic differentiation of cultured MDSC; type: cell-based, human
From the text: The immunoglobulin isotype controls used included IgG^1 for AbBMP-2/4 and AbTGF-β, and IgG^2B for Ab-BMP-7. B: human serum containing culture medium with the addition of recombinant human BMPs and TGF-β. C: fracture supernatant±antibody neutralization of TNF-α, IL-6 and IL-1β. The IgG^1 immunoglobulin was used as the antibody isotype control. D: human serum-containing culture medium with the addition of recombinant human TNF-α, IL-6 and IL-1β. E: Alizarin red staining for bone nodule formation after culture of 1×10^4 MDSC in human serum-containing media. […] A representative image from a single well is shown. All experiments were performed 3 times, in triplicate (n=3) using MDSC from 3 donors. Values for A-D represent a mean from 3 experiments ±SEM, using supernatant from 3 donors in A and C. *: P<0.05; **: P<0.01; ***: P<0.001; 1-way ANOVA with Bonferroni's multiple comparison test in A and C and with Dunnett's multiple comparison test against the media only control in B and D.
To investigate the fracture-derived stimulus for osteogenic differentiation of MDSC, fracture supernatants were prepared using human tibial fracture fragments obtained within 24 hours of injury (ethics approval number—COREC No: 07/Q0411/30). […] Bone fragments were obtained from either fractured tibial fragments or non-traumatically cut bone slices. These were then incubated in serum free DMEM+Glutamax media for 24 hours. The supernatant was then filter sterilised to remove any contaminants and cellular debris. MDSC were then cultured in the presence of either control media, osteogenic media, fracture supernatant or non-fracture supernatant for 7 days before lysis and quantification of ALP levels.
1×10^4 human MDSC were added to wells of a 96 well plate in triplicate. At 24 hrs the media was pipetted off and replaced by 200 μl test media. The media was changed every 3 days. At 7 days the media was removed and the cells lysed in 20 μl NP-40 lysis buffer. An ALP quantification assay (WAKO pure chemical Ltd.) was used. Calibration solution from the assay was serially diluted to make concentrations of 0.25, 0.125 and 0.0625 mmol/L. To empty wells, 20 μl of each calibration solution was added. To another, dH2O was added. 100 μl reagent (1 taBIet per 5 ml buffer solution) was added to each well, and incubated at 37° C. for 20 minutes. 80 μl stop solution was then added to each well and the plate was read using an ELISA spectrometer at 405 nm wavelength. The concentration of ALP in the test wells was extrapolated from the standard curve.

[2] = test system: muscle-derived stromal cells (MDSC); assay: MDSC proliferation (CellTiter-Glo luminescent cell viability assay); type: cell-based, human
Experimental: CellTiter-Glo® luminescent cell viability assay for MDSC in culture with A: TNF-α, B: IL-6 and C: IL-1β. 2.5×10^3 cells were cultured in triplicate for 1, 3 and 5 days in human serum-containing media ± recombinant human cytokine at the concentration indicated. The number of viaBIe cells in culture was determined using the assay, where luminescent signal is directly proportional to the concentration of ATP from viaBIe cells.
In order to test this hypothesis, proliferation of MDSC in human serum-containing media with rhTNF-α, rhIL-6 and rhIL-1β was tested using the CellTiter-Glo® luminescent cell viability assay was used (Promega Corp., Madison, Wis.).
This method assays the number of viaBIe cells in culture, by measuring adenosine triphosphate (ATP), where the luminescent signal is directly proportional to the number of ATP present.

Question: TNFα was tested. Which “ALP expression (osteogenic differentiation) in cultured MDSC” value ([1]; Example 1, exogenous recombinant human factor added to MDSC culture (FIG. 8, 10, 12)) did it give?
Answer: The value was “dose-dependent stimulation of ALP expression”.

Question: And the “ALP expression by MDSC” value ([1]; Example 3, 7 days in human serum-containing media with recombinant human factor (FIG. 26B, 26D))?
Answer: The value was “stimulated ALP expression”.

Question: And the “concentration at which ALP expression by MDSC is stimulated” value ([1]; Example 3, 7 days, human serum-containing media (FIG. 26D))?
Answer: The value was “up to 1 ng/ml”.

Question: And the “ALP expression by MDSC relative to control” value ([1]; Example 3, TNF-α at 100 ng/ml, 7 days (FIG. 26D))?
Answer: The value was “non-significantly less than the control”.

Question: And the “proliferation of MDSC” value ([2]; Example 1 discussion, TNFα 1 ng/ml)?
Answer: The value was “led to proliferation of MDSC”.

Question: What about the MDSC proliferation ([2]; Example 3, 1, 3 and 5 days in human serum-containing media ± recombinant human cytokine (FIG. 28)) of the same substance?
Answer: The MDSC proliferation was “do not promote MDSC proliferation”.
